Measurements published in patent US10036033B2, “Method of inhibiting sprouting in plant tissues” (Academia Sinica, priority 2014, dated 2018).
Blank lines part the entries; values can stand above or below the molecule they belong to.

Legend:
[1] = system: ABA induced gene expression (ABRC1-GUS) in rice aleurone cells; assay: ABRC1-GUS reporter expression assay in transgenic rice embryoless half-seeds (aleurone cells); type: cell-based, rice (Oryza sativa); details: wild type rice aleurone cells; 20 μM ABA, 24 h
Procedure: FIG. 1. FCA-overexpression enhances and FCA-RNAi suppresses ABA induced gene expression in rice aleurone cells. The reporter construct (A) ABRC1-GUS was bombarded into (B) FCA-overexpression and (C) FCA-RNAi transgenic rice embryoless half-seeds. Bars indicate GUS activities ±SE after 24 h of incubation of bombarded seeds in shooting buffer with or without 20 μM ABA.
Rice (Oryza sativa) cultivar Tainung 67 was used in this study. Rice seedlings were grown in Kimura B nutrient solution at 28° C., 16L/8D photoperiod. Barley seeds (Hordeum vulgare L. cv. Himalaya) were used in all the transient assays. Embryoless half-seeds were prepared as described (Gomez-Cadenas et al., 2001).
Rice FCA cDNA clones (GenBank Accession Numbers AK073225 and AK058419) were supplied by Rice Genome Resource Center (RGRC) of National Institute of Agricultural Sciences (NIAS). Coding region of rice FCA was amplified from FCA cDNA clone by PCR. Coding region of barley FCA was amplified from total RNA of barley seed by RT-PCR. For underexpression of FCA, nucleotide number 307-822 of rice FCA ORF and nucleotide number 1532-1945 of barley FCA ORF were amplified. All PCR products were T/A cloned into pCR8/GW/TOPO vector (Invitrogen). Sequences and orientations of inserts in vector were confirmed by sequencing. […]

[2] = system: ABA induced gene expression (ABRC1-GUS) in barley aleurone cells; assay: Transient expression assay, ABRC1-GUS reporter, barley aleurone cells; type: cell-based, barley (Hordeum vulgare); details: 20 μM ABA, 24 h
Text: FIG. 2. FCA alters ABA but not GA pathway in barley aleurone cells. (A) Schemes of the reporter and effector constructs used in transient expression assays. (B) FCA-overexpression enhances and (D) FCA-RNAi suppresses ABA induced gene expression in barley aleurone cells. (C and E) GA induced gene expression is not affected. The reporter construct ABRC1-GUS or Amy32b-GUS was cobombarded into barley embryoless half-seeds with (+) or without (−) effector constructs Ubi-HvFCA-RNAi or Ubi-HvFCA. Bars indicate GUS activities ±SE after 24 h of incubation of bombarded embryoless half-seeds in shooting buffer with or without 20 μM ABA or 1 μM GA.
FIG. 9. FCA-overexpression enhances ABA induced gene expression in barley aleurone cells. (A) Schemes of the reporter and effector constructs used in transient expression assays. (B) The reporter construct ABRC1-GUS was cobombarded into barley embryoless half-seeds with (+) or without (−) effector constructs Ubi-HvFCA or Ubi-OsFCA. Bars indicate GUS activities ±SE after 24 h of incubation of bombarded embryoless half-seeds in shooting buffer with (+) or without (−) 10 μM ABA.
Rice (Oryza sativa) cultivar Tainung 67 was used in this study. Rice seedlings were grown in Kimura B nutrient solution at 28° C., 16L/8D photoperiod. Barley seeds (Hordeum vulgare L. cv. Himalaya) were used in all the transient assays. […]

VP1 = target: T1, VP1 (Zea mays, UniProt P26307); assay: In planta two-hybrid study; type: binding
T1 sequence (P26307 1-691): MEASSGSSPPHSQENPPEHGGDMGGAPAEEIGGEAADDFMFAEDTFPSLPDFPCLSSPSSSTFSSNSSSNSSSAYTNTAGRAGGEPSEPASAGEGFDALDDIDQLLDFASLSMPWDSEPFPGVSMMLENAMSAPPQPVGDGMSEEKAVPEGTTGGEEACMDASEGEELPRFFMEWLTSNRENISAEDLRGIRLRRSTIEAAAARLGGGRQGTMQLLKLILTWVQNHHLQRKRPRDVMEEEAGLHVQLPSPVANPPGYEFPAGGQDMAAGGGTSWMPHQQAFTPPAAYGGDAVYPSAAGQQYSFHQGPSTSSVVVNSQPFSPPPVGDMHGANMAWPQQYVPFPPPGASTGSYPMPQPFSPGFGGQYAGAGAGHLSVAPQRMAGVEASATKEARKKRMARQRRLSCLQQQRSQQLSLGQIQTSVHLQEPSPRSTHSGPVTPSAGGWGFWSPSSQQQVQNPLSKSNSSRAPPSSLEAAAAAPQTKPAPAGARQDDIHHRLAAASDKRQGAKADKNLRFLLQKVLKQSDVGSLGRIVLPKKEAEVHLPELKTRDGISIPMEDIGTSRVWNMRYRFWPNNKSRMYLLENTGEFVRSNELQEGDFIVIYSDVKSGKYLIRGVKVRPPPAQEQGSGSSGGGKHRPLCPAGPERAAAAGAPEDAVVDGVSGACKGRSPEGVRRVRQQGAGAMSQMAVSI

ABI5 = assay: In planta two-hybrid study; type: binding

Molecule: CC1=CC(=O)CC(C)(C)C1(O)/C=C/C(C)=C\C(=O)O (stereo not shown) [ABA]
ABRC1-GUS reporter induction by ABA treatment [1]: highly induced | ABRC1-GUS reporter induction by ABA treatment [2]: highly induced

Interaction with VP1 (VP1): interacts with VP1
B1: OsFCA: Rice FCA protein, nuclear RNA-binding protein, SEQ ID NO: 1 (protein, listed as Oryza sativa)
chain: MHRGGDRSTDPSSGPAPGSRGGGDGRFGRGPSRWSSGGGGGGSGSPPHRFSRGGGGGGGDGGGGGGGGGRFHPYRGPSDHSGGGGYRSGGGGEYGEPGSGPRHRYGSGRGDHSDHDNRNNYVKLFIGSVPRTATEDDVRPLFEEHGDVVEVALIKDRKTGEQQGCCFVKYATSEEAERAIRALHNQYTLPGAMGPIQVRYADGERERHGAIEHKLFVASLNKQATAKEIEEIFAPYGHVEDVYIMKDGMRQSRGCGFVKFSSREPALAAMSALSGNYVMRGCEQPLIIRFADPKRPRPGGSRGGPAFGGPGFSPRSDAALVIRPTANLDEPRGRHMPPDSWHPSSPRSAPHQFNNFGSDNPMAPKGSTVTSTTDTATFRPQMFSGNGSLSSQTAVPSSSHMGMNPPPMAQGHHLGGQQIPPLQKLPGLPQNFPVQLQNNQLGQPLQGPAQQIGQLQVPQSMGPGSFGQNRLSGQLPVSQPLMQQNASVSAVQVPSAVSNSMQAIPGQQHLPSNVAPQMLQQPVQQMPSQAPQLLLQQQAALQSSYQSSQQAIYQLQQQLQLMQQQQQSNLNHQQPTQGQPVQSSNPGAPNAIIPSNINTIPQQATSPAVPLTCNWTEHTSPEGFKYYYNSITRESKWDKPEEYVLYEQQQQQQQQQKLLLLQQHKQKLAMQQLQSPPQAQTHPAMQPVQQIPQAQQGQQQMQMKQQELNYTQLQTPGAIDPSRIQQGIQSAQERAWKS
Interaction with ABI5 (ABI5): not with ABI5 directly
